PMC11314561, “Design and Synthesis of Novel Aminoindazole-pyrrolo[2,3-b]pyridine Inhibitors of IKKα That Selectively Perturb Cellular Non-Canonical NF-κB Signalling” (Molecules, 2024)

Legend:
Assay in all cases: kinase panel
Format in all cases: biochemical
AMPKα1(h) = AMPKα1(h) (Homo sapiens, UniProt Q13131)
Text: (§1) We profiled three compounds from the series across the kinome (Table S1).
(§2) Ta b l e S1. The % inhibition of compounds 4, 5r [SU1261], and 6g [SU1349] against a
(§3) panel of kinase enzymes. We proϐiled three compounds from the series across 231
(§4) kinases. For SU1349, given its structural similarity with SU1261, we selected 98 from the
(§5) Tested kinase % inhibiƟon

Aurora-A(h) = molecular target: T1, Aurora-A(h) (Homo sapiens, UniProt O14965)
T1 sequence (O14965 1-403): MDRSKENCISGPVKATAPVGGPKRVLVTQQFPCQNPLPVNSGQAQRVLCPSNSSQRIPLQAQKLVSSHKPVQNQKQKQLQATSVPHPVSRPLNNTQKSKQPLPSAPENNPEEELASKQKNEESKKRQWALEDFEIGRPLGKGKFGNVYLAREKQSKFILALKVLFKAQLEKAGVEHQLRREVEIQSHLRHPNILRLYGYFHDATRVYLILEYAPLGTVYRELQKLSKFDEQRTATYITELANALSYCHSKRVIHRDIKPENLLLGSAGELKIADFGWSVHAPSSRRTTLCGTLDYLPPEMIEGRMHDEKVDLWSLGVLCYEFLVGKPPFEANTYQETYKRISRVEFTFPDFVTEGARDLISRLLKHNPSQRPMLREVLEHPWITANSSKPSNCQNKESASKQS
Text: as §1, §2, §3, §4, §5

CDK6/cyclinD3(h) = CDK6/cyclinD3(h) (Homo sapiens, UniProt Q00534)
Chain of CDK6/cyclinD3(h) (Q00534 whole entry): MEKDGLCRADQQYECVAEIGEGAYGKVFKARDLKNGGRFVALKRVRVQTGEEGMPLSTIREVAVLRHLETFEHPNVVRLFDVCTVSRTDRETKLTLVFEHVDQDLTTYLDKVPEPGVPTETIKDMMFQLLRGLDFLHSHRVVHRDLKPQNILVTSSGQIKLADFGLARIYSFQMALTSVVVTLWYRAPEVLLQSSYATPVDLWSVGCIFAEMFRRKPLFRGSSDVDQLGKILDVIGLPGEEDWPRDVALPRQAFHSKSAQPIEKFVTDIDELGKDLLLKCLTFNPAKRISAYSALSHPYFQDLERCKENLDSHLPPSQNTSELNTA
Chain of CDK6/cyclinD3(h) (P30281 whole entry partner): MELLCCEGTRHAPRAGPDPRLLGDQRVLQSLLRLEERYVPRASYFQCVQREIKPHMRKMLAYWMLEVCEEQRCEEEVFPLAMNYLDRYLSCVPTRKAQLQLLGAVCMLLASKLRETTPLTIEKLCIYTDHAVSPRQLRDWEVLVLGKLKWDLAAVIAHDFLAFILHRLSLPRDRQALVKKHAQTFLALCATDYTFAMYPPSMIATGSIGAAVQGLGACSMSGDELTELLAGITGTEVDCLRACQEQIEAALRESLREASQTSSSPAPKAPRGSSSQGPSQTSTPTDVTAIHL
Text: as §1, §2, §3, §4, §5

CDK7/cyclinH/MAT1(h) = CDK7/cyclinH/MAT1(h) (Homo sapiens, UniProt P50613)
Text: as §1, §2, §3, §4, §5

DAPK1(h) = DAPK1(h) (Homo sapiens, UniProt P53355)
Text: as §1, §2, §3, §4, §5

EGFR(h) = EGFR(h) (Homo sapiens, UniProt P00533)
Chain of EGFR(h) (P00533 25-1210): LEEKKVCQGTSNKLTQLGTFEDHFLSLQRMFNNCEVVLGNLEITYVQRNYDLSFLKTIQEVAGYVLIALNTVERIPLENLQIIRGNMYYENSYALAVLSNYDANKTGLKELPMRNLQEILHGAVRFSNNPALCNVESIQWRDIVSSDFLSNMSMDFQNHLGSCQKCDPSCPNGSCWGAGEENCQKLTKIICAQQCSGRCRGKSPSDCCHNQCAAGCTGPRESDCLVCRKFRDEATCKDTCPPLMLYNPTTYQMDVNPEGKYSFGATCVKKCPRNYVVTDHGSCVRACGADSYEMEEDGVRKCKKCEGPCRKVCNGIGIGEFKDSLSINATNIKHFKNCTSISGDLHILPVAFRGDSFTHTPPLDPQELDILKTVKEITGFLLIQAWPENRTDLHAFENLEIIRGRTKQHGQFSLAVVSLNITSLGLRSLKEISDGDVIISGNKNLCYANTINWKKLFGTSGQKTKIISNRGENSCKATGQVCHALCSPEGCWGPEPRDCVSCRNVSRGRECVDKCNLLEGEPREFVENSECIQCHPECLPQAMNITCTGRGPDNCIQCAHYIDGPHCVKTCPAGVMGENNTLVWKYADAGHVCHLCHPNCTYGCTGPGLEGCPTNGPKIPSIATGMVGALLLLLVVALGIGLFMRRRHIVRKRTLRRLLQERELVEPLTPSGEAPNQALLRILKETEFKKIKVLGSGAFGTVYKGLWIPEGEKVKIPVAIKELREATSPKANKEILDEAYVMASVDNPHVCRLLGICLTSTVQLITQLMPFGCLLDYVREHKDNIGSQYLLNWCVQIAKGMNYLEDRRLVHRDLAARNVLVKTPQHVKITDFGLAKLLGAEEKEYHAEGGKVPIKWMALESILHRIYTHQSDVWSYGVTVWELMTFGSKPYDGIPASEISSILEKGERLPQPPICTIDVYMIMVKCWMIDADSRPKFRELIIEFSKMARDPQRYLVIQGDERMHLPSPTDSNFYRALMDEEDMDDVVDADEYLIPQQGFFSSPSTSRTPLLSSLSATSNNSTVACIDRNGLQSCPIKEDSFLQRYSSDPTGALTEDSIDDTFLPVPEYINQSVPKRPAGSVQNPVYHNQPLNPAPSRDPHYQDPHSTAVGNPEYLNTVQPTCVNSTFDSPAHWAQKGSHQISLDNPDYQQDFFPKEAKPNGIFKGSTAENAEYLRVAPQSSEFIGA
Text: as §1, §2, §3, §4, §5

Fms(h) = Fms(h) (Homo sapiens, UniProt P07333)
Text: as §1, §2, §3, §4, §5

IR(h) = IR(h) (Homo sapiens, UniProt P06213)
Text: as §1, §2, §3, §4, §5

JAK2(h) = JAK2(h) (Homo sapiens, UniProt O60674)
Chain of JAK2(h) (O60674 whole entry): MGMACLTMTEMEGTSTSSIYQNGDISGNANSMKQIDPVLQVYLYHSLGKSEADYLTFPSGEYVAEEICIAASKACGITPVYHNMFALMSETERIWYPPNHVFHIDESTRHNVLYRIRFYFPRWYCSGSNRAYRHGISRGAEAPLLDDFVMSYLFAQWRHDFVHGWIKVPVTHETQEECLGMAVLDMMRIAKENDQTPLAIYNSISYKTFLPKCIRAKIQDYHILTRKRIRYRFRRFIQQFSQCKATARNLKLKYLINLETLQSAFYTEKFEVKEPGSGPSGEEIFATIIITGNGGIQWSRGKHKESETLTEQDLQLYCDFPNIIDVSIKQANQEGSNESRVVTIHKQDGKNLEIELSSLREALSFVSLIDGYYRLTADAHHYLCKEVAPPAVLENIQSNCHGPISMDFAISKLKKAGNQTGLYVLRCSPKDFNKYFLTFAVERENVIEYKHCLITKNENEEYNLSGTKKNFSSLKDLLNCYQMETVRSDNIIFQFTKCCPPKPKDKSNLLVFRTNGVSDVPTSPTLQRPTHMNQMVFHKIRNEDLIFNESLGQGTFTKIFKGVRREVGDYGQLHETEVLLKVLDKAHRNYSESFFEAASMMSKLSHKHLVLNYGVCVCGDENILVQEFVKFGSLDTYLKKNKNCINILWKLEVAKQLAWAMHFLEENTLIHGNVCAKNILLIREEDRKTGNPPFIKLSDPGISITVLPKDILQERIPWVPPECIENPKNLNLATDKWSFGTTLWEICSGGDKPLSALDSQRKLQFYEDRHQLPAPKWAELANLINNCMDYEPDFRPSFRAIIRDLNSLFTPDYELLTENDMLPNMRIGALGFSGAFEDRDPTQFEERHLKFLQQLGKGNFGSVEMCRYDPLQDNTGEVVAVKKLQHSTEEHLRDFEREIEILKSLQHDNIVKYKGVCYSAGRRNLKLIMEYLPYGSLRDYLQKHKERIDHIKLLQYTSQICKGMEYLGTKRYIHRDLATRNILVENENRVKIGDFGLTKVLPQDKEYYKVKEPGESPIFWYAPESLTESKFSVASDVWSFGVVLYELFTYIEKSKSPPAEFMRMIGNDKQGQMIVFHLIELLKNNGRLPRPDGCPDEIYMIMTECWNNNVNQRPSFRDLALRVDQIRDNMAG
Text: as §1, §2, §3, §4, §5

LIMK1(h) = LIMK1(h) (Homo sapiens, UniProt P53667)
Text: as §1, §2, §3, §4, §5

MAPK1(h) = MAPK1(h) (Homo sapiens, UniProt P27361)
Text: as §1, §2, §3, §4, §5

MARK1(h) = MARK1(h) (Homo sapiens, UniProt Q9P0L2)
Text: as §1, §2, §3, §4, §5

MINK(h) = MINK(h) (Homo sapiens, UniProt Q8N4C8)
Text: as §1, §2, §3, §4, §5

PDK1(h) = molecular target: T2, PDK1(h) (Homo sapiens, UniProt O15530)
T2 sequence (O15530 1-556): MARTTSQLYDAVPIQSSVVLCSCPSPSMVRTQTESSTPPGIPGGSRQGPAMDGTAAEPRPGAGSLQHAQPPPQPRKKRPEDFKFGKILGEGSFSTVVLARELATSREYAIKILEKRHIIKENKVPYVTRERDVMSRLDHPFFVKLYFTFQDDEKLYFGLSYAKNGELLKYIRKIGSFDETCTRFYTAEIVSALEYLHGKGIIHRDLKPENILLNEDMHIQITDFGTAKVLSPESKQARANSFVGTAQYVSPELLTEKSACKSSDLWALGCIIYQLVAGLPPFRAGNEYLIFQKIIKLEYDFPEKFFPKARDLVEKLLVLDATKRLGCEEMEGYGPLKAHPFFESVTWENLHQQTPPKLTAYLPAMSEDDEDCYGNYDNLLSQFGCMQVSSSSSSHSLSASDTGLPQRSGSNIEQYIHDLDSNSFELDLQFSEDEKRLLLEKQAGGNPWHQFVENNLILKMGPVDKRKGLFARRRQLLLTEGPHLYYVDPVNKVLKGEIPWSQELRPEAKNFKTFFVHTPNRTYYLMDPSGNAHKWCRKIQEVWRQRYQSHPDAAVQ
Text: as §1, §2, §3, §4, §5

PKCη(h) = PKCη(h) (Homo sapiens, UniProt P24723)
Text: as §1, §2, §3, §4, §5

Ret(h) = Ret(h) (Homo sapiens, UniProt P07949)
Text: as §1, §2, §3, §4, §5

SAPK4(h) = molecular target: T3, SAPK4(h) (Homo sapiens, UniProt O15264)
T3 sequence (O15264 1-365): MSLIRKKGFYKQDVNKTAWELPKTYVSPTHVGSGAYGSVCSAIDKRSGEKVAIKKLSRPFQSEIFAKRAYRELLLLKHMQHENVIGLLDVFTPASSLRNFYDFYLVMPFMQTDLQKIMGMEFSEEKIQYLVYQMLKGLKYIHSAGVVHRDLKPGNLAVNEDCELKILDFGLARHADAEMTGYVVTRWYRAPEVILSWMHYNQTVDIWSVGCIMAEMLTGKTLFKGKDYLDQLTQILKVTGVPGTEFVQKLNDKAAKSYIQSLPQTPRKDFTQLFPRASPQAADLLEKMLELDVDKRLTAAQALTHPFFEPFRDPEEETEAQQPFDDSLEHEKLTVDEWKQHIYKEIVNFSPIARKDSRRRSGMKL
Text: as §1, §2, §3, §4, §5

SGK(h) = molecular target: T4, SGK(h) (Homo sapiens, UniProt O00141)
T4 sequence (O00141 1-431): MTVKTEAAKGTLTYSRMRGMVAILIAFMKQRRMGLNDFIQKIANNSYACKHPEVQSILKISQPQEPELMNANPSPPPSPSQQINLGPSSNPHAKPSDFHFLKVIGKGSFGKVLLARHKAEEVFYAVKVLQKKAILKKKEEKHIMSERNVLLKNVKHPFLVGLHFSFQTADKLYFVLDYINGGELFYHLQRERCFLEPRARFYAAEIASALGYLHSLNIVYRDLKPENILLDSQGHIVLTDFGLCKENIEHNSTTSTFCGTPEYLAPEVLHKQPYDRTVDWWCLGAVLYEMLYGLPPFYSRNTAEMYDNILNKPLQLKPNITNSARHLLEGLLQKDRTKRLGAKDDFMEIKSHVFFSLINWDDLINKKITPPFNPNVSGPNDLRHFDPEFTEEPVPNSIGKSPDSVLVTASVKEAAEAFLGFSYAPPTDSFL
Text: as §1, §2, §3, §4, §5

TrkB(h) = TrkB(h) (Homo sapiens, UniProt Q16620)
Chain of TrkB(h) (Q16620 32-822): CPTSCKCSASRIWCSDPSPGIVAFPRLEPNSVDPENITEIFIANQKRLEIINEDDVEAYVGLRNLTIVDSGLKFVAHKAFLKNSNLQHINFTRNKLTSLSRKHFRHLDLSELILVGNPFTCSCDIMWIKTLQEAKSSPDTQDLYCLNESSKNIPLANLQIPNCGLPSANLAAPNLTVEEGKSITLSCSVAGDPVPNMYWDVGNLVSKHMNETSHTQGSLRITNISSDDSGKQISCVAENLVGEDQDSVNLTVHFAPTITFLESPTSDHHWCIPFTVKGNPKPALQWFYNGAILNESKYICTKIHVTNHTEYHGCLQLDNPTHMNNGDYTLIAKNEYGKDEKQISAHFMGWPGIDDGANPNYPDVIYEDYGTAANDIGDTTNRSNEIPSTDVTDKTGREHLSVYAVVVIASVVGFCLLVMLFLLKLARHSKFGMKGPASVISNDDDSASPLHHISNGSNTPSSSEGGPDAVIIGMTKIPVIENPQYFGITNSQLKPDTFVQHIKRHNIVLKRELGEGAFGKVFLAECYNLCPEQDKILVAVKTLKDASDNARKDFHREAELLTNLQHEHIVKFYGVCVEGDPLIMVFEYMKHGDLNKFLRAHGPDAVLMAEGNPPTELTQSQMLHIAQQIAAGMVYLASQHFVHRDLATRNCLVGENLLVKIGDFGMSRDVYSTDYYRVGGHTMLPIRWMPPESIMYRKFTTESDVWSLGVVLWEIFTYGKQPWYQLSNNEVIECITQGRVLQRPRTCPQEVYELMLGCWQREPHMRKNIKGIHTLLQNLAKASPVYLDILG
Text: as §1, §2, §3, §4, §5

Chain of AMPKα1(h) (Q13131 whole entry): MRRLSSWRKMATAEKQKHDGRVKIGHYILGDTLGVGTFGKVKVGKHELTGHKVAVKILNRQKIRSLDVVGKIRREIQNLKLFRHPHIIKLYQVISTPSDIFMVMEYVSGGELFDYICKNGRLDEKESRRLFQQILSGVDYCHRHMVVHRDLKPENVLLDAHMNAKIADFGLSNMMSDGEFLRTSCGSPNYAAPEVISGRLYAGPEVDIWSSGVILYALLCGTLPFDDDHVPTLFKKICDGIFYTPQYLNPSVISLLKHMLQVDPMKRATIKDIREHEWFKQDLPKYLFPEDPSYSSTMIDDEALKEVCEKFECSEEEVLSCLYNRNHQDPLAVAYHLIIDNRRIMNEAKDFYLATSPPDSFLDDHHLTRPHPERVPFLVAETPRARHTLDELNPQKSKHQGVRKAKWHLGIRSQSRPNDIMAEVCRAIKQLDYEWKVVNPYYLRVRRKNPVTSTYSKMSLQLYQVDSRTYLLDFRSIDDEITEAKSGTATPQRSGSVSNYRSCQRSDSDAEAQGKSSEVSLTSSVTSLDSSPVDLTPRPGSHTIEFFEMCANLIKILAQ
Chain of AMPKα1(h) (Q9Y478 whole entry partner): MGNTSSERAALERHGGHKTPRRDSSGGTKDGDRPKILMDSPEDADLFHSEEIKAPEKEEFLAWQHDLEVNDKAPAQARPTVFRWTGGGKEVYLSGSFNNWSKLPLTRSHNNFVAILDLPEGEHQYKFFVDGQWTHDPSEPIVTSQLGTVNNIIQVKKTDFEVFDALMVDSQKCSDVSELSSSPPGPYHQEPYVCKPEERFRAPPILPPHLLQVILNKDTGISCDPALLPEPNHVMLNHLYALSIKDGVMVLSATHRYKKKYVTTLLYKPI
Chain of AMPKα1(h) (P54619 whole entry partner): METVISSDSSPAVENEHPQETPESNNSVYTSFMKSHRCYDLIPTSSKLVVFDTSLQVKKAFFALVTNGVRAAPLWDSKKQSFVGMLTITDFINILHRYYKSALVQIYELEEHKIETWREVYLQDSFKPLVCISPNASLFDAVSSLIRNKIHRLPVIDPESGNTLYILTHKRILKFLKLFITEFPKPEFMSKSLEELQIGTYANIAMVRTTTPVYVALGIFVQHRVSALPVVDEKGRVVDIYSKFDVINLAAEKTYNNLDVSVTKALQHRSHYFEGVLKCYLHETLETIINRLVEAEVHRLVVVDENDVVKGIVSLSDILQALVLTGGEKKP

inhibition at 1 µM (AMPKα1(h)) [%] | inhibition at 1 µM (Aurora-A(h)) [%] | inhibition at 1 µM (CDK6/cyclinD3(h)) [%] | inhibition at 1 µM (CDK7/cyclinH/MAT1(h)) [%] | inhibition at 1 µM (DAPK1(h)) [%] | inhibition at 1 µM (EGFR(h)) [%] | inhibition at 1 µM (Fms(h)) [%] | inhibition at 1 µM (IR(h)) [%] | inhibition at 1 µM (JAK2(h)) [%] | inhibition at 1 µM (LIMK1(h)) [%] | inhibition at 1 µM (MAPK1(h)) [%] | inhibition at 1 µM (MARK1(h)) [%] | inhibition at 1 µM (MINK(h)) [%] | inhibition at 1 µM (PDK1(h)) [%] | inhibition at 1 µM (PKCη(h)) [%] | inhibition at 1 µM (Ret(h)) [%] | inhibition at 1 µM (SAPK4(h)) [%] | inhibition at 1 µM (SGK(h)) [%] | inhibition at 1 µM (TrkB(h)) [%] | Compound
-7 | 52 | 17 | 37 | -15 | 5 | 58 | 4 | 73 | 21 | -4 | 28 | 51 | 7 | 2 | 41 | 18 | -10 | -37 | Nc1n[nH]c2ccc(-c3ccnc4[nH]c(-c5cccc(OCc6ccccc6)c5)cc34)cc12 [Compound 5r [SU1261]]
-5 | 36 | -13 | 14 | 4 | -8 | 10 | -1 | 35 | 15 | 18 | 17 | 41 | 18 | -1 | -3 | 10 | 22 | -34 | Nc1n[nH]c2ccc(-c3ccnc4[nH]c(-c5ccnc(OCc6ccccc6)c5)cc34)cc12 [Compound 6g [SU1349]]
23 | 88 | 82 | 85 | -1 | 13 | 91 | 50 | 88 | 58 | 46 | 84 | 92 | 25 | 2 | 52 | 87 | 15 | 65 | Nc1n[nH]c2ccc(-c3ccnc4[nH]c(-c5ccccc5)cc34)cc12 [Compound 4]
